Laboratory results reported in ChEMBL document CHEMBL1140340 (J Med Chem, 2005).

Experiments:
[1] = target: Monoamine transporters; Norepininephrine & dopamine (Rattus norvegicus) (UniProt P23977+Q9WTR4); test: Ratio between Dopamine transporter and Norepinephrine transporter uptake; type: protein assay
[2] = target: Monoamine transporters; Norepinephrine & serotonin (Rattus norvegicus) (UniProt P31652+Q9WTR4); test: Ratio between Serotonin transporter and Norepinephrine transporter uptake; type: protein assay
[3] = target: Monoamine transporters; serotonin & dopamine (Rattus norvegicus) (UniProt P31652+P23977); test: Ratio between Dopamine transporter and Serotonin transporter uptake; type: protein assay
Sequence of Monoamine transporters; serotonin & dopamine (Rattus norvegicus) (P23977 whole entry, looked up): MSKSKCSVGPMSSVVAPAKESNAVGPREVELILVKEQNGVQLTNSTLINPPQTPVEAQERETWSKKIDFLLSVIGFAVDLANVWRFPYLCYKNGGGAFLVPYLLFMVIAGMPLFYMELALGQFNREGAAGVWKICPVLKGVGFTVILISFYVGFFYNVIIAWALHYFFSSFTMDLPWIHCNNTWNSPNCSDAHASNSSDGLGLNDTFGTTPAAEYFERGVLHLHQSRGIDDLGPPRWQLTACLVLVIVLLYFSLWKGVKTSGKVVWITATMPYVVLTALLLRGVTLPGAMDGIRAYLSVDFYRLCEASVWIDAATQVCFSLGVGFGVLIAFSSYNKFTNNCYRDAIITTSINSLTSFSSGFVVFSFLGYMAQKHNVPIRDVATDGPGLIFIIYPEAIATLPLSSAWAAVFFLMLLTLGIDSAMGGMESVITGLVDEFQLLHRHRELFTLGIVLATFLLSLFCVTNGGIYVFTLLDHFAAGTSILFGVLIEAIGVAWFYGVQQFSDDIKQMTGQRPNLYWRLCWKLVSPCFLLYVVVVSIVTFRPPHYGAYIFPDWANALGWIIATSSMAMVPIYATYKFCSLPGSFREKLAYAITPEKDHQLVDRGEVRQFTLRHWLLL
Sequence of Monoamine transporters; serotonin & dopamine (Rattus norvegicus) (P31652 whole entry, looked up): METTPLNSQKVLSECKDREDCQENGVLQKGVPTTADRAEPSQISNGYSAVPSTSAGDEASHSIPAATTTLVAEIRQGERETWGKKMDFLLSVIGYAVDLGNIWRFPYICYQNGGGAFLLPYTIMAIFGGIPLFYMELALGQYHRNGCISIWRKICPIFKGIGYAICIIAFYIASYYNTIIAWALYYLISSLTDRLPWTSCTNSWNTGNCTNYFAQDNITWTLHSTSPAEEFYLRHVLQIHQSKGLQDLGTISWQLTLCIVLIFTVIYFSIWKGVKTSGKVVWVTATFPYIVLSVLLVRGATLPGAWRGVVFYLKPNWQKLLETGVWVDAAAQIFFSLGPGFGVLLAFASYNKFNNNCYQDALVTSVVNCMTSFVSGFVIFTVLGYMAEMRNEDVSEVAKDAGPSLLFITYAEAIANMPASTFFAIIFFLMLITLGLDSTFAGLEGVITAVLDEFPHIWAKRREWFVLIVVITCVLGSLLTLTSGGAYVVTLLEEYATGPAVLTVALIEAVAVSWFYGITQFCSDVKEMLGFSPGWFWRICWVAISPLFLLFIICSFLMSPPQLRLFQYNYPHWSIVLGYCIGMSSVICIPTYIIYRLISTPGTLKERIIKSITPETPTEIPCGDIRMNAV

[4] = target: T1, Sodium-dependent dopamine transporter (Rattus norvegicus, UniProt P23977); test: Inhibition of rat brain Dopamine transporter uptake as [3H]DA accumulation; type: functional
T1 sequence (P23977 whole entry): as the sequence (P23977 whole entry, looked up) above

[5] = target: T2, Norepinephrine transporter (Rattus norvegicus, UniProt Q9WTR4); test: Inhibition of rat brain Norepinephrine transporter as accumulation of [3H]-NE; type: functional
T2 sequence (Q9WTR4 whole entry): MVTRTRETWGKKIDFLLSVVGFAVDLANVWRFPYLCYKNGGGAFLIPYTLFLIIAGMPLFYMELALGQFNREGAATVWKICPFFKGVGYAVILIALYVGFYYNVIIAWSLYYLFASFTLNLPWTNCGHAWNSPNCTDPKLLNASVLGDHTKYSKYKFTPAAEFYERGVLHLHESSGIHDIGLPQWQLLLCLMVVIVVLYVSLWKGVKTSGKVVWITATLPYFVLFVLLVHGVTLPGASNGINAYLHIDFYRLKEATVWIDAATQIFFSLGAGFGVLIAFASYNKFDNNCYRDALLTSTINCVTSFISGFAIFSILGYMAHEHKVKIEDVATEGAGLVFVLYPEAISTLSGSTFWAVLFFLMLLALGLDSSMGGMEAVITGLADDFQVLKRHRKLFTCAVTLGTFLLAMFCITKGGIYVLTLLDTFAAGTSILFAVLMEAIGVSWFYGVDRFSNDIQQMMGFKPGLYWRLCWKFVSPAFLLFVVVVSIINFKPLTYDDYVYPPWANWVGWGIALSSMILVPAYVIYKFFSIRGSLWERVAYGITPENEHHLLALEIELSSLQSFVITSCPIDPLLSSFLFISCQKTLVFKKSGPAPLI

[6] = target: T1, Sodium-dependent dopamine transporter; test: Inhibition of rat brain dopamine transporter as accumulation of [3H]DA; type: functional
[7] = target: T3, Sodium-dependent serotonin transporter (Rattus norvegicus, UniProt P31652); test: Inhibition of rat brain Serotonin transporter as accumulation of [3H]5-HT; type: functional
T3 sequence (P31652 whole entry): as the sequence (P31652 whole entry, looked up) above

[8] = target: T1, Sodium-dependent dopamine transporter; test: Inhibition of [3H]WIN-35428 binding to rat brain dopamine transporter
[9] = target: T3, Sodium-dependent serotonin transporter; test: Inhibition of rat brain Serotonin transporter uptake as [3H]5-HT accumulation
[10] = target: T2, Norepinephrine transporter; test: Inhibition of rat brain Norepinephrine transporter as accumulation of [3H]NE; type: functional

SMILES | Ratio [1] | Ratio [2] | Ratio [3] | IC50 [4] [nM] | Ki [5] [nM] | Ki [6] [nM] | Ki [7] [nM] | IC50 [8] [nM] | IC50 [9] [nM] | IC50 [10] [nM]
OC1CC(C(c2ccccc2)c2ccccc2)OCC1NCc1ccc(F)cc1 (single isomer, unassigned) | 0.31 | 4.8 | 0.065 | 440 | 1050 | 327 | 5000 | 1030 | 5560 | 1130
O[C@@H]1C[C@@H](C(c2ccccc2)c2ccccc2)OC[C@H]1NCc1ccc(F)cc1 | 10.2 | 50 | 0.21 | 169 | 12.2 | 125 | 607 | 308 | 676 | 13.3
COc1ccc(CNC2COC(C(c3ccccc3)c3ccccc3)CC2O)cc1 (single isomer, unassigned) | – | – | – | – | 412 | – | – | – | – | –
O[C@@H]1C[C@@H](C(c2ccccc2)c2ccccc2)OC[C@H]1NCCc1ccc(F)cc1 | 0.78 | 7.9 | 0.099 | 427 | 406 | 317 | 3210 | 1050 | 3570 | 439
COc1ccc(CN[C@@H]2CO[C@H](C(c3ccccc3)c3ccccc3)C[C@H]2O)cc1 | – | – | – | – | 15.8 | – | – | – | – | –
OC1CC(C(c2ccccc2)c2ccccc2)OCC1NCc1ccccc1 (single isomer, unassigned) | – | – | – | 341 | – | 253 | 5500 | 596 | 6120 | –
OC1COC(C(c2ccccc2)c2ccccc2)CC1NCc1ccccc1 (single isomer, unassigned) | 0.25 | 1.4 | 0.18 | 962 | 2890 | 716 | 3970 | 1250 | 4420 | 3220
OC1CC(C(c2ccccc2)c2ccccc2)OCC1NCCc1ccc(F)cc1 (single isomer, unassigned) | 2.3 | 37 | 0.061 | 218 | 71 | 162 | 2650 | 443 | 2950 | 77.3
COc1ccc(CN[C@@H]2C[C@@H](C(c3ccccc3)c3ccccc3)OC[C@H]2O)cc1 | 0.89 | 1.2 | 0.77 | 822 | 686 | 611 | 793 | 771 | 1070 | 765
O[C@@H]1CO[C@H](C(c2ccccc2)c2ccccc2)C[C@H]1NCc1ccccc1 | 6.6 | 32 | 0.2 | 2610 | 296 | 1940 | 9560 | 4640 | 10600 | 336
COc1cc(CN[C@@H]2CO[C@H](C(c3ccccc3)c3ccccc3)C[C@H]2O)cc(OC)c1 | 0.99 | 0.2 | 5.1 | 135 | 101 | 100 | 19.7 | 298 | 25.4 | 108
O[C@@H]1C[C@@H](C(c2ccccc2)c2ccccc2)OC[C@H]1NCc1ccccc1 | – | – | – | 600 | – | 446 | 707 | – | 862 | –
COc1ccc(CNC2CC(C(c3ccccc3)c3ccccc3)OCC2O)cc1 (single isomer, unassigned) | 1.2 | 2 | 0.58 | 2670 | 1700 | 1980 | 3420 | 3750 | 3810 | 1840
COc1ccc(CN[C@@H]2CO[C@H](C(c3ccccc3)c3ccccc3)C[C@H]2O)c(OC)c1 | 5.6 | 0.22 | 25 | 710 | 95 | 528 | 20.8 | 1060 | 24 | 115
